According to patent publication US9493487B2, “3-(1H-imidazo[4,5-C]pyridin-2-YL)-1H-pyrazolo[3,4-B]pyridine and therapeutic uses thereof” (Samumed, LLC, priority 2014, dated 2016):

Tests used:
Type in all cases: cell-based
[1] = system: Wnt activity (Sp5-Luc reporter, SW480 colon carcinoma cells); test: Sp5-Luc Wnt reporter gene assay in SW480 colon carcinoma cells; conditions: Homo sapiens; SW480 cells stably expressing Sp5-Luc reporter; 42 h incubation; BrightGlo luminescence normalized to DMSO
Procedure, shortened: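 IC50 values come from variable-slope four-parameter fits of luciferase signal normalized to DMSO wells. Stable Sp5-Luc reporter SW480 colon carcinoma cells were exposed to compounds in a 3-fold dilution series (source plates from 10 mM stock) for forty-two hours at 37 °C.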

[2] = system: primary human mesenchymal stem cells (hMSCs); test: Chondrogenesis induction screen in primary human mesenchymal stem cells (nodule count, Rhodamine B/Nile Red); conditions: 144 h, 6 days, concentration required to induce chondrogenesis equivalent to TGF-β3 (10 ng/mL), read-out: Conc (nM) of 100% TGF-β3 activity
Procedure: The above synthesized compounds were screened using primary human mesenchymal stem cells (hMSCs) to determine their ability to induce chondrogenesis (process by which cartilage is developed).
Primary human mesenchymal stem cells (hMSCs) were purchased from Lonza (Walkersville, Md.) and expanded in Mesenchymal Stem Cell Growth Media (Lonza). Cells between passage 3 and 6 were used for the experiments.
Each compound was dissolved in DMSO as a 10 mM stock and used to prepare compound source plates. Serial dilution (1:3, 6-point dose-response curves from 2700 nM to 10 nM) and compound transfer was performed using the ECHO 550 (Labcyte, Sunnyvale, Calif.) into 96-well clear bottom assay plates (Greiner Bio-One) with appropriate DMSO backfill for a final DMSO concentration of 0.03%. hMSCs were plated at 20,000 cells/well in 250 μL/well Incomplete Chondrogenic Induction Medium (Lonza; DMEM, dexamethasone, ascorbate, insulin-transferrin-selenium [ITS supplement], gentamycin-amphotericin [GA-1000], sodium pyruvate, proline and L-glutamine). TGF-β3 (10 ng/mL) was used as a positive control for differentiation while negative control wells were treated with 75 nL DMSO for normalization and calculating EC50 values. Cells were incubated at 37° C. and 5% CO2 for 6 days. To image chondrogenic nodules, the cells were fixed using 4% formaldehyde (Electron Microscopy Sciences), and stained with 2 μg/mL Rhodamine B (Sigma-Aldrich) and 20 μM Nile Red (Sigma-Aldrich) [Johnson K., et. al, A Stem Cell-Based Approach to Cartilage Repair, Science, (2012), 336(6082), 717-721]. The nodules imaged (4 images per well at 4× magnification) by excitation at 531 nm and emission at 625 nm and quantified using the CellInsight CX5 (Thermo Scientific). Number of nodules in each well was normalized to the average of 3 DMSO treated wells on the same plate using Excel (Microsoft Inc.). The normalized averages (fold change over DMSO) of 3 replicate wells for each compound concentration were calculated. Due to solubility limitations of some of the compounds, curve fitting was incomplete leading to inaccurate EC50 determinations.
Using TGF-β3 as a positive control, the concentration of test compounds required to induce equivalent levels of chondrogenesis is reported. In addition, the maximum activity of each compound and the respective dose that each compound reached maximum chondrogenesis activity is reported.

[3] = system: primary human fibroblasts derived from IPF patients (LL29 cells); test: Inhibition of TGF-β1-induced fibrosis (αSMA staining) in primary human fibroblasts from IPF patients; conditions: Fibroblast, 96 h, TGF-β1 20 ng/mL, 4 days, 11-point dose-response 10 μM to 1.87 nM
Procedure, shortened: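 LL29 cells in F12 with 1% FBS were exposed to compound (11-point, 10 μM–1.87 nM, 0.1% DMSO) plus TGF-β1 20 ng/mL for 4 days at 37° C. Imaged αSMA-positive fraction of live (SYTOX-negative) cells, normalized to TGF-β1/DMSO wells; EC50 by non-linear regression of triplicates.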

Structure (SMILES) | IC50 [1] | EC (100% TGF-beta3 activity) [2] | EC50 [3]
CCC(=O)Nc1cncc(-c2cnc3[nH]nc(-c4nc5c(-c6cccc(F)c6)nccc5[nH]4)c3c2)c1 [Compound 1, N-(5-(3-(4-(3-Fluorophenyl)-1H-imidazo[4,5-c]pyridin-2-yl)-1H-pyrazolo[3,4-b]pyridin-5-yl)pyridin-3-yl)propionamide] | 5.8 nM | 117 nM | 62 nM
O=C(Nc1cncc(-c2cnc3[nH]nc(-c4nc5c(-c6ccc(F)cc6)nccc5[nH]4)c3c2)c1)C1CCC1 [Compound 46, N-(5-(3-(4-(4-Fluorophenyl)-1H-imidazo[4,5-c]pyridin-2-yl)-1H-pyrazolo[3,4-b]pyridin-5-yl)pyridin-3-yl)cyclobutanecarboxamide] | 5 nM | 80.6 nM | 253 nM
Nc1cncc(-c2cnc3[nH]nc(-c4nc5c(-c6ccccc6F)nccc5[nH]4)c3c2)c1 [Compound 55, 5-(3-(4-(2-Fluorophenyl)-1H-imidazo[4,5-c]pyridin-2-yl)-1H-pyrazolo[3,4-b]pyridin-5-yl)pyridin-3-amine] | 5.9 nM | 32.2 nM | 283 nM
Cc1cn(-c2nccc3[nH]c(-c4n[nH]c5ncc(-c6cncc(NC(=O)CC(C)C)c6)cc45)nc23)cn1 [Compound 184, 3-Methyl-N-(5-(3-(4-(4-methyl-1H-imidazol-1-yl)-1H-imidazo[4,5-c]pyridin-2-yl)-1H-pyrazolo[3,4-b]pyridin-5-yl)pyridin-3-yl)butanamide] | 4.8 nM | 5.4 nM | –
CCCC(=O)Nc1cncc(-c2cnc3[nH]nc(-c4nc5c(-c6ccsc6)nccc5[nH]4)c3c2)c1 [Compound 251, N-(5-(3-(4-(Thiophen-3-yl)-1H-imidazo[4,5-c]pyridin-2-yl)-1H-pyrazolo[3,4-b]pyridin-5-yl)pyridin-3-yl)butyramide] | 9.9 nM | 52.8 nM | 73 nM
CC(C)Nc1cncc(-c2cnc3[nH]nc(-c4nc5c(-c6ccoc6)nccc5[nH]4)c3c2)c1 [Compound 272, 5-(3-(4-(Furan-3-yl)-1H-imidazo[4,5-c]pyridin-2-yl)-1H-pyrazolo[3,4-b]pyridin-5-yl)-N-isopropylpyridin-3-amine] | 13 nM | 72 nM | 9 nM
O=C(Nc1cncc(-c2cnc3[nH]nc(-c4nc5c(-c6cccs6)nccc5[nH]4)c3c2)c1)C1CC1 [Compound 305, N-(5-(3-(4-(Thiophen-2-yl)-1H-imidazo[4,5-c]pyridin-2-yl)-1H-pyrazolo[3,4-b]pyridin-5-yl)pyridin-3-yl)cyclopropanecarboxamide] | 9 nM | 54.9 nM | –
Cc1ccc(-c2nccc3[nH]c(-c4n[nH]c5ncc(-c6cncc(N)c6)cc45)nc23)s1 [Compound 341, 5-(3-(4-(5-Methylthiophen-2-yl)-1H-imidazo[4,5-c]pyridin-2-yl)-1H-pyrazolo[3,4-b]pyridin-5-yl)pyridin-3-amine] | 0.9 nM | 58.2 nM | 9 nM
CC(=O)c1ccc(-c2nccc3[nH]c(-c4n[nH]c5ncc(-c6cccnc6)cc45)nc23)s1 [Compound 368, 1-(5-(2-(5-(Pyridin-3-yl)-1H-pyrazolo[3,4-b]pyridin-3-yl)-1H-imidazo[4,5-c]pyridin-4-yl)thiophen-2-yl)ethan-1-one] | 10.4 nM | 84.6 nM | 241 nM
Cc1ccncc1-c1cnc2[nH]nc(-c3nc4c(-c5cc(F)cc(CNS(C)(=O)=O)c5)nccc4[nH]3)c2c1 [Compound 395, N-(3-Fluoro-5-(2-(5-(4-methylpyridin-3-yl)-1H-pyrazolo[3,4-b]pyridin-3-yl)-1H-imidazo[4,5-c]pyridin-4-yl)benzyl)methanesulfonamide] | 8 nM | 92.8 nM | 9 nM
CC(C)Nc1cncc(-c2cnc3[nH]nc(-c4nc5c(-c6cc(F)cc(NCCN(C)C)c6)nccc5[nH]4)c3c2)c1 [Compound 428, N^1-(3-Fluoro-5-(2-(5-(5-(isopropylamino)pyridin-3-yl)-1H-pyrazolo[3,4-b]pyridin-3-yl)-1H-imidazo[4,5-c]pyridin-4-yl)phenyl)-N^2,N^2-dimethylethane-1,2-diamine] | 15 nM | 82.9 nM | 20 nM
Cn1cc(-c2cnc3[nH]nc(-c4nc5c(-c6cccc(F)c6)nccc5[nH]4)c3c2)cn1 [Compound 888, 3-(4-(3-Fluorophenyl)-1H-imidazo[4,5-c]pyridin-2-yl)-5-(1-methyl-1H-pyrazol-4-yl)-1H-pyrazolo[3,4-b]pyridine] | 12 nM | 74.9 nM | 14 nM
Cc1ncc(-c2cnc3[nH]nc(-c4nc5c(-c6cccc(F)c6)nccc5[nH]4)c3c2)n1C [Compound 889, 5-(1,2-Dimethyl-1H-imidazol-5-yl)-3-(4-(3-fluorophenyl)-1H-imidazo[4,5-c]pyridin-2-yl)-1H-pyrazolo[3,4-b]pyridine] | 12 nM | 152 nM | 9 nM
